How the values were obtained:
[1] = test system: human non-small cell lung cancer A549 cell; test: MTT proliferation assay of Example 1, A549; assay type: cell-based; details: A549, 96 h, 4 days
Procedure: (§1) The cells were digested by trypsinase and centrifuged at 800 rpm for 5 minutes, the supernatant was discarded, and the residual was resuspended with fresh medium (1640 medium+10% FRS) and counted. The cells were seeded into 96well cell culture plate with a density of 2000/4000 cells per well and incubated overnight in a 5% CO2 incubator at 37° C. The stock solutions of the test substances were serially diluted to 8 concentrations by DMSO at the ratios of 1:3 and 1:10, respectively. 5 μL diluent of each concentration was added to […] (25 times diluted) and mixed by shaking. The overnight cell plates were taken and the culture medium was removed, 195 μL of fresh medium was added to each well, and 5 μL of diluted medium containing the corresponding concentration of the test compound was added respectively (the final concentration of DMSO is 1%), and the culture plate was then placed in a 5% CO2 incubator at 37° C for 4 days. After removing the original solution, […] of fresh serum-free DMEM medium containing MTT (0.5 mg/mL) was added to each well, the culture was continued. After 4 hours, the original solution was removed, 100 μL, of DMSO was added to each well, the 96-well plates were shaken for 10 minutes in the dark and placed in a multi-function reader to read the absorbance at the wavelength of 552/690 nm. […]

[2] = Pharmacokinetics following single oral administration to mice; assay type: in vivo; details: mouse, CD-1 (ICR) mice, gavage 10 mg/kg, 0.5% methylcellulose/water suspension, plasma
Procedure: The compound of the present invention was formulated into a 0.5% methylcellulose/water uniform suspension, and was administered to CD-1 (ICR) mice by gavage at 10 mg/kg. Plasma samples were collected at 8 time points of 0.250, 0.500, 1.00, 2.00, 4.00, 6.00, 8.00 and 24.0 hours post-dose. Concentrations of the compound were determined by LC-MS/MS method.

ATR/ATRIP enzyme = target: T1, ATR/ATRIP enzyme (Homo sapiens, UniProt Q13535); test: ATR enzyme activity experiment (HTRF); assay type: biochemical; details: p53 substrate, 30 min room temperature, read-out: IC50 (nM), inhibitory effect on ATR kinase activity
T1 construct: purchased Eurofins 14-953
T1 sequence (Q13535 whole entry): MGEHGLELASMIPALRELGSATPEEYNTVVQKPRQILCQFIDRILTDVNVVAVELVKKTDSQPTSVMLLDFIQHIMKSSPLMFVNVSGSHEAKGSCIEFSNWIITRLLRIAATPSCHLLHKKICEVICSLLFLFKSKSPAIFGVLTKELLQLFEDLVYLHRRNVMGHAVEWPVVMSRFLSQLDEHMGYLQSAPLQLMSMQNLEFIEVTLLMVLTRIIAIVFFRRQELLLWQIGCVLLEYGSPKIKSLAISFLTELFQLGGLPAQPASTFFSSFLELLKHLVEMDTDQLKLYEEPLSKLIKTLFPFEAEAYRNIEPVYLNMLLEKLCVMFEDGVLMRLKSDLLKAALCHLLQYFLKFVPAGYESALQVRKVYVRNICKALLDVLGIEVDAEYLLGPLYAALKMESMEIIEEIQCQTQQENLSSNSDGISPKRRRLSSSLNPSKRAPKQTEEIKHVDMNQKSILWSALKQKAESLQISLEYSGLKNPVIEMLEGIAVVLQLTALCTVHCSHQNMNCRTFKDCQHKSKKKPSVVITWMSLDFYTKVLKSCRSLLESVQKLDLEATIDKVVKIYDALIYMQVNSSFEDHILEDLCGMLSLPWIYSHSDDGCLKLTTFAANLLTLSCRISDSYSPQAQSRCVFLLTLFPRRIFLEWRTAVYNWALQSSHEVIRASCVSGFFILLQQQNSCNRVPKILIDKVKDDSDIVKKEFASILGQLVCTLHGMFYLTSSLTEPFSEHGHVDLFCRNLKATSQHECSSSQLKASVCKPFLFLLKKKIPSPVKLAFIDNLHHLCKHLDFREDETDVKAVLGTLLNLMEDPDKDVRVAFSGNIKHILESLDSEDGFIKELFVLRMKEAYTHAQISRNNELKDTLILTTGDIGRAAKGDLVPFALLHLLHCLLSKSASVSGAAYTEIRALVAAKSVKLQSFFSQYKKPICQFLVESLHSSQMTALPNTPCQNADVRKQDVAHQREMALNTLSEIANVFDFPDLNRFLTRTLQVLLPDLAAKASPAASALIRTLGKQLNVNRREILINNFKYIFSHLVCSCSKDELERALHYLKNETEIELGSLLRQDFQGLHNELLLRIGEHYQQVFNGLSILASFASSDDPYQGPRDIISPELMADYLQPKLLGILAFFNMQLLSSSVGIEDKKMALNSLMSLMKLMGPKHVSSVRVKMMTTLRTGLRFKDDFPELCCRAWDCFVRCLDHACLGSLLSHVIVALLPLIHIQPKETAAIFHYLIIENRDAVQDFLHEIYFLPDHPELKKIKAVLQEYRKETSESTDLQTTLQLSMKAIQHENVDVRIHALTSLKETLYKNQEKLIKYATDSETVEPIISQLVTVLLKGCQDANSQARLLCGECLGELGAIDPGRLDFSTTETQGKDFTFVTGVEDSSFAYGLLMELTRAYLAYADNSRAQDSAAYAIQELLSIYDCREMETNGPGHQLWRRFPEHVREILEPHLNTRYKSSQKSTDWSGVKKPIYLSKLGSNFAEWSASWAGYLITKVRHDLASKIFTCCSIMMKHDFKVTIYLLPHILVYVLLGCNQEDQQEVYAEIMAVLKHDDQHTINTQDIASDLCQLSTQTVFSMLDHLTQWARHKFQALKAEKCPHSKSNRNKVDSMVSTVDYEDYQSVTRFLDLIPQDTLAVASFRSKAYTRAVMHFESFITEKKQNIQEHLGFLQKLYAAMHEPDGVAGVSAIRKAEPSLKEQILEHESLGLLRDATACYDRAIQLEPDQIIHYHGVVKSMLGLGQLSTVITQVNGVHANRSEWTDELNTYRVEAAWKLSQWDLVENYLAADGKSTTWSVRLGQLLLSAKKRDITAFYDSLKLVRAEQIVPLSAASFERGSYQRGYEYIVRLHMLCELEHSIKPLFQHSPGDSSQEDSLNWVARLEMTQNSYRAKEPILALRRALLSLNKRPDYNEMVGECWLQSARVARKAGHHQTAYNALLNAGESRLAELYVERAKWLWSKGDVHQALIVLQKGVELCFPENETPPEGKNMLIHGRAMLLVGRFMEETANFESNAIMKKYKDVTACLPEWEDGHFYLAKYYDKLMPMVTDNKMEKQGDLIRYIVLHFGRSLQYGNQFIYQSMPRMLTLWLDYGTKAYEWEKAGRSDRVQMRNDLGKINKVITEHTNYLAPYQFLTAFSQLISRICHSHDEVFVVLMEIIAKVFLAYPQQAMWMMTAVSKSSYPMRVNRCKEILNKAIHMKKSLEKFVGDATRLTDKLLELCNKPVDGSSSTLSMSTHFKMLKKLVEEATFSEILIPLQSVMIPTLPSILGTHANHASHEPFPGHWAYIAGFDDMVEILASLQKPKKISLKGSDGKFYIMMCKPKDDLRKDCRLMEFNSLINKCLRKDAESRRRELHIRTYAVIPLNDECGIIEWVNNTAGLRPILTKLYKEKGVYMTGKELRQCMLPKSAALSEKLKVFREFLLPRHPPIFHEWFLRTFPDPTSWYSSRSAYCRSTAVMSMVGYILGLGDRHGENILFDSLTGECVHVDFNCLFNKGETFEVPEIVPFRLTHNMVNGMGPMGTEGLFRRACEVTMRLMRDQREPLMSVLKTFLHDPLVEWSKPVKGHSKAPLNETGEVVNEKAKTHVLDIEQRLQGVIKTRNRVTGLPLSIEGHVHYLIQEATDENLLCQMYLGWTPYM
T1 sequence (Q8WXE1 whole entry partner): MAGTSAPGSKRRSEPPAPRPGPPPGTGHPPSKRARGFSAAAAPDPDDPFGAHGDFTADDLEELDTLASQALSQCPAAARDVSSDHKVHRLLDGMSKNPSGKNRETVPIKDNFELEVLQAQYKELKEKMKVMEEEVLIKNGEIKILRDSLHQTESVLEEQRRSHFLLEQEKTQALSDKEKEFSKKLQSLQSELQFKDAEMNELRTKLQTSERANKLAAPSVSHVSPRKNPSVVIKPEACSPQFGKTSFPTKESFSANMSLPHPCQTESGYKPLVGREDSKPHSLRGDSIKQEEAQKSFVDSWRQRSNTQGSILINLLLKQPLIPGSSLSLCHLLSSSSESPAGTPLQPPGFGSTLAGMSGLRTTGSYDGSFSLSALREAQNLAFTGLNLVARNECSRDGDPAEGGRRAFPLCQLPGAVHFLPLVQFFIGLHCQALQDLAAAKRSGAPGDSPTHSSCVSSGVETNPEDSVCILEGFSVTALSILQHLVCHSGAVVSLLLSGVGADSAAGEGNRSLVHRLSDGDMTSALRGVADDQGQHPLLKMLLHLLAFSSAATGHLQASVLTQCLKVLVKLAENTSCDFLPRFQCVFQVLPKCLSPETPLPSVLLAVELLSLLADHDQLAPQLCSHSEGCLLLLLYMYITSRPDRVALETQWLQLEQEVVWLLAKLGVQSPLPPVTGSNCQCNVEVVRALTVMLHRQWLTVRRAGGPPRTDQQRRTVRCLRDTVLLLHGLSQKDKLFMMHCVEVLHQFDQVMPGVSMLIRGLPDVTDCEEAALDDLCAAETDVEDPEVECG
Procedure: The mixture was centrifuged at 1000 rpm for 1 minute, and reacted at room temperature protected from light for 30 minutes. Then 5 μL of EDTA stop solution (250 mM) was added to stop the reaction.

[3] = test system: human large cell lung cancer NCI-H460 cell; test: MTT proliferation assay of Example 1, NCI-H460; assay type: cell-based; details: NCI-H460, 96 h, 4 days
Procedure: as §1

[4] = test system: HCT116 (human colorectal adenocarcinoma cell); test: MTT proliferation assay of Example 1, HCT116; assay type: cell-based; details: HCT-116, 96 h, 4 days
Procedure: as §1

IC50 [1]: 157 nM
AUC(0-inf) [2]: 98500 ng·h/mL
AUC(0-t) [2]: 98500 ng·h/mL
Cmax [2]: 9340 ng/mL
half-life [2]: 1.64 h
IC50 (ATR/ATRIP enzyme): 1 nM
IC50 [3]: 19 nM
IC50 [4]: 22.5 nM
SMILES: Cc1nc(-c2ccn[nH]2)n2nc(N3CCOC[C@H]3C)cc(-c3ccnn3C)c12 [Example 1, (R)-3-methyl-4-(5-methyl-4-(1-methyl-1H-pyrazol-5-yl)-7-(1H-pyrazol-5-yl)imidazo[1,5-b]pyridazin-2-yl)morpholine]
